The results in this text go back to patent US12479840B2, “HMG-CoA reductase degradation inducing compound” (Uppthera, priority 2020, dated 2025).

SMILES strings stand for the structures.

This assay has as its target T1, HMG-CoA reductase (Homo sapiens, UniProt P04035).
T1 construct: endogenous in cells; host or cells: HepG2 (Korea Cell Line Bank)
T1 sequence (P04035 1-888): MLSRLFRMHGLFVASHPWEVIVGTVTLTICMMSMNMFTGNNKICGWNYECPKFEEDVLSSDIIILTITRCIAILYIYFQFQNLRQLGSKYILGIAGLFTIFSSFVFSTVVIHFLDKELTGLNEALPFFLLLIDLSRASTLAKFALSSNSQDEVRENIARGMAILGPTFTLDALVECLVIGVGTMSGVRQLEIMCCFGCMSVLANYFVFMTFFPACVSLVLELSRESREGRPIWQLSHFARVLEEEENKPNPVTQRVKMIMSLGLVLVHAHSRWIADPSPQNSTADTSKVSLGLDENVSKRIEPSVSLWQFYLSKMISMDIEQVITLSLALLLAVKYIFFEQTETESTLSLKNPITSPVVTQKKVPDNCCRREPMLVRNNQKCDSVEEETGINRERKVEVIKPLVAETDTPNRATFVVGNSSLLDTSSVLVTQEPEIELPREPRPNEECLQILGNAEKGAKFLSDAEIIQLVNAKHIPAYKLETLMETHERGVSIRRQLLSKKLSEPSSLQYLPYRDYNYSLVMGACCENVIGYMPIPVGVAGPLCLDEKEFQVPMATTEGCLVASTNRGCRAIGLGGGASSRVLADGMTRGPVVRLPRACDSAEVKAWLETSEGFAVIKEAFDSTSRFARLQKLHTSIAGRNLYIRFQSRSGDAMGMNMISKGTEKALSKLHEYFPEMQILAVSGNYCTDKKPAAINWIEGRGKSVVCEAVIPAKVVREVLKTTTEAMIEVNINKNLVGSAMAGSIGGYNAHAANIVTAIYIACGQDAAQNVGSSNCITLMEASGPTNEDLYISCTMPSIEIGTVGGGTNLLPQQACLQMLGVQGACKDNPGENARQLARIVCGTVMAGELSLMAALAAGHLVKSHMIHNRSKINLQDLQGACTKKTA
In words: HMG-CoA reductase (HMGCR) degradation in HepG2 cells by western blotting. It is filed as cell-based. Conditions: treated for 18 hours, ratio of HMG-CoA reductase to GAPDH, read-out: DC50. The gist of the method: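 Western blot read-out: HMGCR protein probed (1:500, 16 hours at 4° C) alongside GAPDH loading control on 15 μg BCA-normalised RIPA lysates. Lysates came from HepG2 cells (P105–P110) exposed for 18 hours to a 10-point, three-fold series starting at 3 μM.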
With `C[C@H]1C=C2C=C[C@H](C)[C@H](CC[C@@H]3C[C@@H](O)CC(=O)O3)[C@H]2[C@@H](OC(=O)NCCCCCCNc2cccc3c2C(=O)N(C2CCC(=O)NC2=O)C3=O)C1` (stereo partly drawn) [Compound 59, (1S,3R,7S,8S,8aR)-8-(2-((2R,4R)-4-hydroxy-6-oxotetrahydro-2H-pyran-2-yl)ethyl)-3,7-dimethyl-1,2,3,7,8,8a-hexahydronaphthalen-1-yl (6-((2-(2,6-dioxopiperidin-3-yl)-1,3-dioxoisoindolin-4-yl)amino)hexyl)carbamate], the DC50 lay in the range of 0.05 to 0.5 µM. In the case of `C[C@H]1C=C2C=C[C@H](C)[C@H](CC[C@@H]3C[C@@H](O)CC(=O)O3)[C@H]2[C@@H](OC(=O)NCCCCCCCNc2cccc3c2C(=O)N(C2CCC(=O)NC2=O)C3=O)C1` (stereo partly drawn) [Compound 60, (1S,3R,7S,8S,8aR)-8-(2-((2R,4R)-4-hydroxy-6-oxotetrahydro-2H-pyran-2-yl)ethyl)-3,7-dimethyl-1,2,3,7,8,8a-hexahydronaphthalen-1-yl (7-((2-(2,6-dioxopiperidin-3-yl)-1,3-dioxoisoindolin-4-yl)amino)heptyl)carbamate], the DC50 lay within 0.05 to 0.5 µM.

On to `C[C@H]1C=C2C=C[C@H](C)[C@H](CC[C@@H]3C[C@@H](O)CC(=O)O3)[C@H]2[C@@H](OC(=O)NCCCCCCCCNc2cccc3c2C(=O)N(C2CCC(=O)NC2=O)C3=O)C1` (stereo partly drawn) [Compound 61, (1S,3R,7S,8S,8aR)-8-(2-((2R,4R)-4-hydroxy-6-oxotetrahydro-2H-pyran-2-yl)ethyl)-3,7-dimethyl-1,2,3,7,8,8a-hexahydronaphthalen-1-yl (8-((2-(2,6-dioxopiperidin-3-yl)-1,3-dioxoisoindolin-4-yl)amino)octyl)carbamate], for which the DC50 was under 0.05 µM. Turning to `C[C@H]1C=C2C=C[C@H](C)[C@H](CC[C@@H]3C[C@@H](O)CC(=O)O3)[C@H]2[C@@H](OC(=O)NCCCCCCCCCNc2cccc3c2C(=O)N(C2CCC(=O)NC2=O)C3=O)C1` (stereo partly drawn) [Compound 62, (1S,3R,7S,8S,8aR)-8-(2-((2R,4R)-4-hydroxy-6-oxotetrahydro-2H-pyran-2-yl)ethyl)-3,7-dimethyl-1,2,3,7,8,8a-hexahydronaphthalen-1-yl (9-((2-(2,6-dioxopiperidin-3-yl)-1,3-dioxoisoindolin-4-yl)amino)nonyl)carbamate], the DC50 fell in the range of 0.05 to 0.5 µM. The same measure for `C[C@H]1C=C2C=C[C@H](C)[C@H](CC[C@@H]3C[C@@H](O)CC(=O)O3)[C@H]2[C@@H](OC(=O)NCCCCCCCCCCNc2cccc3c2C(=O)N(C2CCC(=O)NC2=O)C3=O)C1` (stereo partly drawn) [Compound 63, (1S,3R,7S,8S,8aR)-8-(2-((2R,4R)-4-hydroxy-6-oxotetrahydro-2H-pyran-2-yl)ethyl)-3,7-dimethyl-1,2,3,7,8,8a-hexahydronaphthalen-1-yl (10-((2-(2,6-dioxopiperidin-3-yl)-1,3-dioxoisoindolin-4-yl)amino)decyl)carbamate]: under 0.05 µM.

With `C[C@H]1C=C2C=C[C@H](C)[C@H](CC[C@@H]3C[C@@H](O)CC(=O)O3)[C@H]2[C@@H](OC(=O)NCCCCCCCCCCCNc2cccc3c2C(=O)N(C2CCC(=O)NC2=O)C3=O)C1` (stereo partly drawn) [Compound 64, (1S,3R,7S,8S,8aR)-8-(2-((2R,4R)-4-hydroxy-6-oxotetrahydro-2H-pyran-2-yl)ethyl)-3,7-dimethyl-1,2,3,7,8,8a-hexahydronaphthalen-1-yl (11-((2-(2,6-dioxopiperidin-3-yl)-1,3-dioxoisoindolin-4-yl)amino)undecyl)carbamate], the DC50 was under 0.05 µM. The same measure for `C[C@H]1C=C2C=C[C@H](C)[C@H](CC[C@@H]3C[C@@H](O[Si](C)(C)C(C)(C)C)CC(=O)O3)[C@H]2[C@@H](OC(=O)NCCOCCOCCNc2cccc3c2CN(C2CCC(=O)NC2=O)C3=O)C1` (stereo partly drawn) [Compound 65, (1S,3R,7S,8S,8aR)-8-(2-((2R,4R)-4-((tert-butyldimethylsilyl)oxy)-6-oxotetrahydro-2H-pyran-2-yl)ethyl)-3,7-dimethyl-1,2,3,7,8,8a-hexahydronaphthalen-1-yl (2-(2-(2-((2-(2,6-dioxopiperidin-3-yl)-1-oxoisoindolin-4-yl)amino)ethoxy)ethoxy)ethyl)carbamate]: under 0.05 µM. The same measure for `C[C@H]1C=C2C=C[C@H](C)[C@H](CC[C@@H]3C[C@@H](O)CC(=O)O3)[C@H]2[C@@H](OC(=O)NCCOCCOCCNc2cccc3c2CN(C2CCC(=O)NC2=O)C3=O)C1` (stereo partly drawn) [Compound 66, (1S,3R,7S,8S,8aR)-8-(2-((2R,4R)-4-hydroxy-6-oxotetrahydro-2H-pyran-2-yl)ethyl)-3,7-dimethyl-1,2,3,7,8,8a-hexahydronaphthalen-1-yl (2-(2-(2-((2-(2,6-dioxopiperidin-3-yl)-1-oxoisoindolin-4-yl)amino)ethoxy)ethoxy)ethyl)carbamate]: under 0.05 µM. With `C[C@H]1C=C2C=C[C@H](C)[C@H](CC[C@@H]3C[C@@H](O[Si](C)(C)C(C)(C)C)CC(=O)O3)[C@H]2[C@@H](OC(=O)NCCOCCOCCNc2ccc3c(c2)C(=O)N(C2CCC(=O)NC2=O)C3=O)C1` (stereo partly drawn) [Compound 67, (1S,3R,7S,8S,8aR)-8-(2-((2R,4R)-4-((tert-butyldimethylsilyl)oxy)-6-oxotetrahydro-2H-pyran-2-yl)ethyl)-3,7-dimethyl-1,2,3,7,8,8a-hexahydronaphthalen-1-yl (2-(2-(2-((2-(2,6-dioxopiperidin-3-yl)-1,3-dioxoisoindolin-5-yl)amino)ethoxy)ethoxy)ethyl)carbamate], the DC50 is under 0.05 µM. Then `C[C@H]1C=C2C=C[C@H](C)[C@H](CC[C@@H]3C[C@@H](O)CC(=O)O3)[C@H]2[C@@H](OC(=O)NCCOCCOCCNc2ccc3c(c2)C(=O)N(C2CCC(=O)NC2=O)C3=O)C1` (stereo partly drawn) [Compound 68, (1S,3R,7S,8S,8aR)-8-(2-((2R,4R)-4-hydroxy-6-oxotetrahydro-2H-pyran-2-yl)ethyl)-3,7-dimethyl-1,2,3,7,8,8a-hexahydronaphthalen-1-yl (2-(2-(2-((2-(2,6-dioxopiperidin-3-yl)-1,3-dioxoisoindolin-5-yl)amino)ethoxy)ethoxy)ethyl)carbamate], with under 0.05 µM; and `CO[C@H]1CC(=O)O[C@H](CC[C@@H]2[C@@H]3C(=C[C@H](C)C[C@@H]3OC(=O)NCCOCCOCCNc3cccc4c3C(=O)N(C3CCC(=O)NC3=O)C4=O)C=C[C@@H]2C)C1` (stereo partly drawn) [Compound 69, (1S,3R,7S,8S,8aR)-8-(2-((2R,4R)-4-methoxy-6-oxotetrahydro-2H-pyran-2-yl)ethyl)-3,7-dimethyl-1,2,3,7,8,8a-hexahydronaphthalen-1-yl (2-(2-(2-((2-(2,6-dioxopiperidin-3-yl)-1,3-dioxoisoindolin-4-yl)amino)ethoxy)ethoxy)ethyl)carbamate], with under 0.05 µM; and `CC(C)[Si](O[C@H]1CC(=O)O[C@H](CC[C@@H]2[C@@H]3C(=C[C@H](C)C[C@@H]3OC(=O)NCCOCCOCCNc3cccc4c3C(=O)N(C3CCC(=O)NC3=O)C4=O)C=C[C@@H]2C)C1)(C(C)C)C(C)C` (stereo partly drawn) [Compound 70, (1S,3R,7S,8S,8aR)-3,7-dimethyl-8-(2-((2R,4R)-6-oxo-4-((triisopropylsilyl)oxy)tetrahydro-2H-pyran-2-yl)ethyl)-1,2,3,7,8,8a-hexahydronaphthalen-1-yl (2-(2-(2-((2-(2,6-dioxopiperidin-3-yl)-1,3-dioxoisoindolin-4-yl)amino)ethoxy)ethoxy)ethyl)carbamate], with under 0.05 µM. Then `C[C@H]1C=C2C=C[C@H](C)[C@H](CC[C@@H]3C[C@@H](O[Si](c4ccccc4)(c4ccccc4)C(C)(C)C)CC(=O)O3)[C@H]2[C@@H](OC(=O)NCCOCCOCCNc2cccc3c2C(=O)N(C2CCC(=O)NC2=O)C3=O)C1` (stereo partly drawn) [Compound 71, (1S,3R,7S,8S,8aR)-8-(2-((2R,4R)-4-((tert-butyldiphenylsilyl)oxy)-6-oxotetrahydro-2H-pyran-2-yl)ethyl)-3,7-dimethyl-1,2,3,7,8,8a-hexahydronaphthalen-1-yl (2-(2-(2-((2-(2,6-dioxopiperidin-3-yl)-1,3-dioxoisoindolin-4-yl)amino)ethoxy)ethoxy)ethyl)carbamate], with under 0.05 µM.
